6 molecules from PMC5413348, “Structure of Fam20A reveals a pseudokinase featuring a unique disulfide pattern and inverted ATP-binding” (eLife, 2017) can be followed below.

Series [1] concerns the target T1, Fam20A (Homo sapiens, UniProt Q96MK3).
T1 construct: residues 69-529; secreted from Hi5 insect cells; N-terminal 6xHis-SUMO tag removed by TEV protease; dimer in crystal, concentration-dependent dimer/oligomer in solution
T1 sequence (Q96MK3 69-529): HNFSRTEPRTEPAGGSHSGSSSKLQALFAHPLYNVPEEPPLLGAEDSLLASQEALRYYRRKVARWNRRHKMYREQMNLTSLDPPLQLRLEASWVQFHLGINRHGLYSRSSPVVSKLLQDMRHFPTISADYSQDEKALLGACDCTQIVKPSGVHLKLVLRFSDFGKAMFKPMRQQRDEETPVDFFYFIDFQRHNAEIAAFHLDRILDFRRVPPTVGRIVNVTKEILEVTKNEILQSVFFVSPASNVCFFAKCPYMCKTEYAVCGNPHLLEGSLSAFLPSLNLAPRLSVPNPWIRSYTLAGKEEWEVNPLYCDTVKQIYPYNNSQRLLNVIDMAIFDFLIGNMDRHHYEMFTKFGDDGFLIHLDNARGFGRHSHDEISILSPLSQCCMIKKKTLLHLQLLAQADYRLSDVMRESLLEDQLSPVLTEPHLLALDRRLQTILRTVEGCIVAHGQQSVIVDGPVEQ
The series is described as follows: thermal stability shift assay (SYPRO Orange), dTm vs concentration fit. The settings on record: 20 mM HEPES pH 7.5, 100 mM NaCl. The format is binding.

In series [2] the target is T2, Fam20A (Homo sapiens, UniProt Q96MK3, K223A).
T2 construct: residues 69-529; secreted from Hi5 insect cells; N-terminal 6xHis-SUMO tag removed by TEV protease; dimer in crystal, concentration-dependent dimer/oligomer in solution
T2 sequence (Q96MK3 69-529 K223A): T1 sequence (Q96MK3 69-529) with K155A
The series is described as follows: thermal stability shift assay (SYPRO Orange). The format is binding. The conditions noted are these: 100 μM ATP; 20 mM HEPES pH 7.5, 100 mM NaCl.

The target in series [3] is T3, Fam20A (Homo sapiens, UniProt Q96MK3, D430A).
T3 construct: residues 69-529; secreted from Hi5 insect cells; N-terminal 6xHis-SUMO tag removed by TEV protease; dimer in crystal, concentration-dependent dimer/oligomer in solution
T3 sequence (Q96MK3 69-529 D430A): T1 sequence (Q96MK3 69-529) with D362A
The experiment in a line: thermal stability shift assay (SYPRO Orange). The conditions noted are these: 100 μM ATP; 20 mM HEPES pH 7.5, 100 mM NaCl. The format is binding.

For series [4], the target named is T1, Fam20A. The experiment in a line: thermal stability shift assay (SYPRO Orange). The format is binding. The settings on record: 10 μM nucleotide; no metal ions; 20 mM HEPES pH 7.5, 100 mM NaCl.
Series [5] concerns the molecule itself. The experiment in a line: SEC; 1 mg or 100 µg purified Fam20A (both in 500 µl) on Superdex 200 increase 10/300 GL, 20 mM HEPES, pH 7.5, 100 mM NaCl. Background: SEC sorts molecules by how far they enter the pores of the column.

Changes are numbered by the printed parent chain. Read-outs that look alike come from different tables or passages of the source.

With `Nc1ncnc2c1ncn2[C@@H]1O[C@H](COP(=O)(O)OP(=O)(O)O)[C@@H](O)[C@H]1O` [ADP], at Fam20A [1] (no cations), the Kd result is “Fam20A prefers binding ATP over ADP (Figure 2D)”.
As for `Nc1ncnc2c1ncn2[C@@H]1O[C@H](COP(=O)(O)OP(=O)(O)OP(=O)(O)O)[C@@H](O)[C@H]1O` [ATP], the Tm entry on Fam20A [2] and on Fam20A [3] was “with Ala has little effect on the ability of Fam20A to bind ATP” in each case. For the same molecule, on Fam20A [1] (no divalent cations, inverted orientation in crystal, read-out: Kd^app), the Kd was determined as 3 µM.
For the molecule `Nc1ccn([C@@H]2O[C@H](COP(=O)(O)OP(=O)(O)OP(=O)(O)O)[C@@H](O)[C@H]2O)c(=O)n1` [CTP], the ΔTm entry on Fam20A [4] is “Fam20A also binds other nucleoside triphosphates including GTP, CTP, and UTP”.
Turning to `Nc1nc2c(ncn2[C@@H]2O[C@H](COP(=O)(O)OP(=O)(O)OP(=O)(O)O)[C@@H](O)[C@H]2O)c(=O)[nH]1` [GTP], on Fam20A [4], the ΔTm result was “Fam20A also binds other nucleoside triphosphates including GTP, CTP, and UTP”.
Consider `O=c1ccn([C@@H]2O[C@H](COP(=O)(O)OP(=O)(O)OP(=O)(O)O)[C@@H](O)[C@H]2O)c(=O)[nH]1` [UTP], for which, at Fam20A [4], the ΔTm result was “Fam20A also binds other nucleoside triphosphates including GTP, CTP, and UTP”.

B1: Human Fam20A residues 69–529 (domain or fragment, UniProt Q96MK3 69-529, looked up)
chain: T1 sequence (Q96MK3 69-529)
notes: Fam20A, human, residues 69-529, secreted from a modified pI-secSUMOstar vector; the 6xHis-SUMO tag was removed by TEV protease; The only purified Fam20A construct that the methods describe; also called untagged Fam20A; purified Fam20A; source: Hi5 insect cells (baculovirus), conditioned medium, purified (Ni-NTA, Resource Q, Superdex 200); not shown: 6xHis, N-terminal, cleaved; SUMO, N-terminal, …
As to B1, the binding result in series [5] is “binds”.
